Test results reported in patent US8524759B2, “Phenylbutazone carrier formulation showing increased bioactivity in animals” (priority 2009, dated 2013).

Legend:
[1] = oral administration; cited from earlier work
[2] = Bioequivalence test: blood plasma phenylbutazone levels (HPLC) after horses eat the product mixed in grain; assay type: in vivo, horse; design: unit not given here; conditions: 4 g phenylbutazone in grain, oral, average of five horses
Method: The above product mixture was tested for bioequivalency as follows. Three healthy mature geldings and two non-pregnant mares aged 3-15 years with similar weights were chosen for a bioequivalence test. The bioequivalence test was designed to determine the difference in blood plasma absorption between commercially available phenylbutazone tablets and the inventive product mixture described above. […] At five o'clock p.m. the evening before the test, each horse was fed a normal meal consisting of 1 gallon of grain with fourteen percent protein, and ten pounds of alfalfa hay. During the test each horse was stabled separately and had access to drinking water at all times. On test day, each horse was fasted until administration of the test product, and then given a normal meal consisting of one gallon of grain with fourteen percent protein and ten pounds of alfalfa hay five hours post dosing and at twelve and one-half hours after administration. The morning of the test, 4.60 grams of the product from example one containing a total of four grams of phenylbutazone, was added to one half gallon of grain with fourteen percent protein by lightly stifling. Each horse was given 15 minutes to consume the grain. […] Each of the five horses followed this procedure. Two hours following administration a 4.5 cc blood sample was taken from each of the five horses. Thereafter, additional 4.5 cc blood samples were taken at half-hour intervals until the sixth hour. After the sixth hour 4.5 cc blood samples were taken hourly until the eighth hour. […] The blood samples were taken with a 20 gauge one inch needle and promptly put into a green CST Lithium Heparin tubes and cooled in ice water at 36 degrees F. When each sample was collected, the blood sample was spun to separate the blood plasma from each sample. The separated blood plasma was placed in a freezer for twenty-four hours at 20 below zero. After twenty-four hours, the blood plasma was thawed to room temperature and phenylbutazone levels were quantified for each sample by a validated HPLC method. Two weeks later after completing a wash out period, the same three healthy mature geldings and two non-pregnant mares aged 3-15 years with similar weights were used for a cross over bioequivalence test. This bioequivalence test was to determine the concentration levels in blood plasma absorption of commercially available phenylbutazone tablets. […] At five o'clock p.m. the evening before the test, each horse was fed a normal meal consisting of 1 gallon of grain with fourteen percent protein, and ten pounds of alfalfa hay. During the test each horse was stabled separately and had access to drinking water at all times. On test day, each horse was fasted until administration of the test product (4 grams of crushed active ingredient phenylbutazone in tablets), and then given a normal meal consisting of one gallon of grain with fourteen percent protein and ten pounds of alfalfa hay five hours post dosing, and at twelve and one-half hours after administration. The morning of the test, four 1 gram tablets of the commercially available phenylbutazone were crushed in to a fine powder, and were added to one half gallon of grain with fourteen percent protein by lightly stifling for each horse. Each horse was given 15 minutes to consume the grain. […] Each of the five horses followed this procedure. Two hours following administration a 4.5 cc blood sample was taken from each of the five horses. Thereafter, additional 4.5 cc blood samples were taken at half-hour intervals until the sixth hour. After the sixth hour 4.5 cc blood samples were taken hourly until the eighth hour. […] The blood samples were taken with a 20 gauge one inch needle and promptly put into a green CST Lithium Heparin tubes and cooled in ice water at 36 degrees F. When each sample was collected, the blood sample was spun to separate the blood plasma from each sample. The separated blood plasma was placed in a freezer for twenty-four hours at 20 below zero. […]

In the case of CCCCC1C(=O)N(c2ccccc2)N(c2ccccc2)C1=O [Pure Phenylbutazone, 4-butyl-diphenyl-3,5-pyrazoidinedione], the “time required to achieve an effective concentration level” value [1] is listed as 3 to 5 h, the “blood plasma concentration of phenylbutazone” value (“blood plasma concentration” below) ([2]; 2 hours after eating) is listed as 5.0 and the “blood plasma concentration” value ([2]; 3 hours after eating) is listed as 6.0. For the same molecule, the “blood plasma concentration” value ([2]; 4 hours after eating) was 8.5, the “blood plasma concentration” value ([2]; 5 hours after eating) was 10.1 and the “blood plasma concentration” value ([2]; 6 hours after eating) was 12.0. The “blood plasma concentration” value ([2]; 7 hours after eating) was 13.0, the “blood plasma concentration” value ([2]; 8 hours after eating) was 12.14 and the “blood plasma concentration” value ([2]; 10 hours after eating) was 9.9. The “blood plasma concentration” value ([2]; 12 hours after eating) was 7.3 and the “blood plasma concentration” value ([2]; 18 hours after eating) was 4.18.
